pIC50: −log10 of the molar value.
Legend:
Type in all cases: cell-based
Target C CJ mRNA = assay: Gene panel canonical junction qPCR assay, Target C; conditions: protocol of Example 42, read-out: Target C IC50 (decrease in CJ mRNA levels)
Summary of the method: (§1)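 A673 or K562 cells treated 24 h at 37° C with 11-point 3-fold dilutions (top 10 uM, DMSO ≤0.25%). Canonical junction mRNA quantified by RT-qPCR, normalized to GAPDH, GUSB or PPIA and DMSO control (2^(−ΔΔCt)). 4-parameter logistic fit gives IC50 for CJ decrease.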

HTT CJ mRNA = assay: Gene panel canonical junction qPCR assay, HTT; conditions: protocol of Example 42, read-out: HTT IC50 (decrease in CJ mRNA levels)
Summary of the method: as §1

SMN2 CJ mRNA = assay: Gene panel canonical junction qPCR assay, SMN2; conditions: protocol of Example 42, read-out: SMN2 IC50 (decrease in CJ mRNA levels)
Summary of the method: as §1

[1] = system: HTT mRNA alternative junction (AJ); assay: Splicing RT-qPCR assay, increase of HTT alternative junction (AJ) mRNA; conditions: A673 or K562 cells, 24 hours compound treatment, concentration having 50% response in AJ increase
Summary of the method: (§2)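 A673 (DMEM, 10% FBS) or K562 (IMDM, 10% FBS) cells exposed 24 h at 37 °C to an 11-point 3-fold series, top dose 10 uM final, DMSO ≤0.25%. Lysates assayed by RT-qPCR for HTT CJ and AJ, normalized to GAPDH, GUSB or PPIA and DMSO control via 2^(−ΔΔCt).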

[2] = system: HTT mRNA canonical junction (CJ); assay: Splicing RT-qPCR assay, decrease of HTT canonical junction (CJ) mRNA; conditions: A673 or K562 cells, 24 hours compound treatment, concentration having 50% response in CJ decrease
Summary of the method: as §2

SMILES	pIC50 (Target C CJ mRNA)	pIC50 (HTT CJ mRNA)	pIC50 (SMN2 CJ mRNA)	AC50 [1]	AC50 [2]
Cc1cn2cc(NC(=O)c3ccc(N4CCN5CCCC5C4)c4cn(C)nc34)cc(F)c2n1 (stereo not drawn) [Compound 250]	5.00 to 6.00	6.00 to 7.00	> 7.00	0.1 to 1 µM	0.1 to 1 µM
Cc1cn2cc(NC(=O)c3ccc(N4CCC(N(C)C)CC4)c4cn(C)nc34)cc(C)c2n1 [Compound 251]	5.00 to 6.00	6.00 to 7.00	> 7.00	0.1 to 1 µM	0.1 to 1 µM
CCNC1CCN(c2ccc(C(=O)Nc3cc(F)c4nc(C)cn4c3)c3nn(C)cc23)CC1 [Compound 252]	6.00 to 7.00	6.00 to 7.00	> 7.00	0.1 to 1 µM	0.1 to 1 µM
Cc1cn2nc(NC(=O)c3ccc(N4CCNCC4)c4nn(C)cc34)nc2c(C)n1 [Compound 253]	< 5.00	< 5.00	5.00 to 6.00	> 10 µM	> 10 µM
Cc1cn2cc(NC(=O)c3ccc(N4C[C@H]5CC[C@@H](C4)N5)c4cc(C)oc34)cc(F)c2n1 [Compound 255]	< 5.00	5.00 to 6.00	> 7.00	1 to 10 µM	1 to 10 µM
Cc1cn2cc(NC(=O)c3ccc(C4CCN(C)CC4)c4cc(C)oc34)cc(F)c2n1 [Compound 256, N-[8-fluoro-2-methylimidazo[1,2-a]pyridin-6-yl]-2-methyl-4-(1-methylpiperidin-4-yl)-1-benzofuran-7-carboxamide]	< 5.00	5.00 to 6.00	> 7.00	1 to 10 µM	1 to 10 µM
CCN1CCC(c2ccc(C(=O)Nc3cc(F)c4nc(C)cn4c3)c3oc(C)cc23)CC1 [Compound 257, 4-(1-ethylpiperidin-4-yl)-N-[8-fluoro-2-methylimidazo[1,2-a]pyridin-6-yl]-2-methyl-1-benzofuran-7-carboxamide]	< 5.00	5.00 to 6.00	> 7.00	1 to 10 µM	1 to 10 µM
Cc1cn2cc(NC(=O)c3ccc(N4CCC(N(C)C)C4)c4cn(C)nc34)cc(F)c2n1 (stereo not drawn) [Compound 258]	5.00 to 6.00	5.00 to 6.00	> 7.00	0.1 to 1 µM	1 to 10 µM
Cc1cn2cc(NC(=O)c3ccc(N4CCC(NC(C)(C)C)CC4)c4cn(C)nc34)cc(F)c2n1 [Compound 259]	5.00 to 6.00	5.00 to 6.00	> 7.00	1 to 10 µM	1 to 10 µM
Cc1cn2cc(NC(=O)c3ccc(N4C[C@H]5CC[C@@H](C4)N5)c4cn(C)nc34)cc(F)c2n1 [Compound 260]	< 5.00	6.00 to 7.00	> 7.00	0.1 to 1 µM	0.1 to 1 µM
Cc1cc2c(N3CCNCC3)ccc(C(=O)Nc3ccc4cn(C)nc4c3)c2o1 [Compound 261, 2-methyl-N-(2-methylindazol-6-yl)-4-(piperazin-1-yl)-1-benzofuran-7-carboxamide]	< 5.00	5.00 to 6.00	5.00 to 6.00	1 to 10 µM	1 to 10 µM
Cc1cn2cc(NC(=O)c3ccc(N4CCNCC4)c4cc(C)oc34)c(C)cc2n1 [Compound 262]	< 5.00	< 5.00	> 7.00	> 10 µM	> 10 µM
Cc1cn2cc(NC(=O)c3ccc(N4CCNCC4)c4cc(C)oc34)ncc2n1 [Compound 263]	5.00 to 6.00	5.00 to 6.00	> 7.00	1 to 10 µM	1 to 10 µM
Cc1cn2nc(NC(=O)c3ccc(N4CCNCC4)c4cc(C)oc34)nc2c(C)n1 [Compound 264]	< 5.00	< 5.00	< 5.00	> 10 µM	> 10 µM
Cc1cc2c(N3CCNCC3)ccc(C(=O)Nc3cn[nH]c3)c2o1 [Compound 268]	< 5.00	< 5.00	< 5.00	> 10 µM	> 10 µM
Cn1cc2c(N3CCNCC3)ccc(C(=O)Nc3cn[nH]c3)c2n1 [Compound 270]	< 5.00	< 5.00	< 5.00	> 10 µM	> 10 µM
Cc1cn2cc(NC(=O)c3ccc(N4C[C@H]5CC[C@@H](C4)N5)c4cn(C)nc34)cc(Cl)c2n1 [Compound 279, N-{8-chloro-2-methylimidazo[1,2-a]pyridin-6-yl}-4-[(1R,5S)-3,8-diazabicyclo[3.2.1]octan-3-yl]-2-methylindazole-7-carboxamide]	< 5.00	5.00 to 6.00	> 7.00	1 to 10 µM	1 to 10 µM

Further lines, with some results ahead:

pIC50 (Target C CJ mRNA)	pIC50 (HTT CJ mRNA)	pIC50 (SMN2 CJ mRNA)	SMILES	AC50 [1]	AC50 [2]
< 5.00	< 5.00	5.00 to 6.00	Cc1cn2nc(NC(=O)c3ccc(N4CCNCC4)c4cc(C)oc34)cc2c(C)n1 [Compound 265]	> 10 µM	> 10 µM
< 5.00	5.00 to 6.00	> 7.00	Cc1cn2cc(NC(=O)c3ccc(N4CCNCC4)c4cc(C)oc34)cc(Cl)c2n1 [Compound 266]	1 to 10 µM	1 to 10 µM
< 5.00	< 5.00	> 7.00	Cc1cn2cc(NC(=O)c3ccc(N4CCNCC4)c4cc(C)oc34)cc(C)c2n1 [Compound 267]	1 to 10 µM	> 10 µM
5.00 to 6.00	6.00 to 7.00	> 7.00	Cc1cn2cc(NC(=O)c3ccc(N4CCNCC4)c4cn(C)nc34)cc(Cl)c2n1 [Compound 269]	0.1 to 1 µM	0.1 to 1 µM
< 5.00	< 5.00	6.00 to 7.00	Cc1cn2cc(NC(=O)c3ccc(C4CC(C)(C)NC(C)(C)C4)c4cc(C)oc34)cc(F)c2n1 [Compound 271, N-[8-fluoro-2-methylimidazo[1,2-a]pyridin-6-yl]-2-methyl-4-(2,2,6,6-tetramethylpiperidin-4-yl)-1-benzofuran-7-carboxamide]	> 10 µM	> 10 µM
6.00 to 7.00	6.00 to 7.00	> 7.00	Cc1cn2cc(NC(=O)c3ccc(N4CCC(N5CCCC5)C4)c4cn(C)nc34)cc(F)c2n1 (stereo not drawn) [Compound 272]	0.1 to 1 µM	0.1 to 1 µM
< 5.00	< 5.00	> 7.00	Cc1cn2cc(NC(=O)c3ccc(N4CCNCC4)c4cn(C)nc34)nc2c(C)n1 [Compound 273]	> 10 µM	> 10 µM
< 5.00	5.00 to 6.00	> 7.00	Cc1cn2cc(NC(=O)c3ccc(N4CC(C)(C)NC(C)(C)C4)c4cn(C)nc34)cc(F)c2n1 [Compound 274]	> 10 µM	1 to 10 µM
< 5.00	5.00 to 6.00	> 7.00	Cc1cn2cc(NC(=O)c3ccc(N4CCNCC4)c4cn(C)nc34)cc(C(F)(F)F)c2n1 [Compound 275]	1 to 10 µM	1 to 10 µM
5.00 to 6.00	6.00 to 7.00	> 7.00	Cc1cn2cc(NC(=O)c3ccc(N4CCNC(C)C4)c4cn(C)nc34)cc(Cl)c2n1 (stereo not drawn) [Compound 277, N-{8-chloro-2-methylimidazo[1,2-a]pyridine-6-yl}-2-methyl-4-(3-methylpiperazin-1-yl)indazole-7-carboxamide]	0.1 to 1 µM	0.1 to 1 µM
5.00 to 6.00	5.00 to 6.00	> 7.00	Cc1cn2cc(NC(=O)c3ccc(N4CCC(N(C)C)C4)c4cn(C)nc34)cc(Cl)c2n1 (stereo not drawn) [Compound 278, N-{8-chloro-2-methylimidazo[1,2-a]pyridin-6-yl}-4-[3-(dimethylamino)pyrrolidin-1-yl]-2-methylindazole-7-carboxamide]	1 to 10 µM	1 to 10 µM
< 5.00	5.00 to 6.00	5.00 to 6.00	Cc1cn2cc(-c3ccc(C(=O)NC4CCNCC4)c4nn(C)cc34)cc(F)c2n1 [Compound 280, 4-{8-fluoro-2-methylimidazo[1,2-a]pyridin-6-yl}-2-methyl-N-(piperidin-4-yl)indazole-7-carboxamide]	1 to 10 µM	1 to 10 µM
5.00 to 6.00	5.00 to 6.00	6.00 to 7.00	Cc1cn2nc(-c3ccc(C(=O)NC4CCNCC4)c4nn(C)cc34)cc(C)c2n1 [Compound 281, 4-{2,8-dimethylimidazo[1,2-b]pyridazin-6-yl}-2-methyl-N-(piperidin-4-yl)indazole-7-carboxamide]	1 to 10 µM	1 to 10 µM

— patent US20230365566A1, “HETEROCYCLIC AMIDES AND THEIR USE FOR MODULATING SPLICING” (REMIX THERAPEUTICS INC., priority 2020, published 2023)
